According to ChEMBL document CHEMBL1201862, “PubChem BioAssay data set” (2004):
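Protocol summary: plate cells (96-well), add compound at 5 concentrations, incubate 48 h, interpolate endpoints linearly. GI50 = concentration required for 50% inhibition of growth.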 Activity calls are given as the source filed them. Cut-off read from the data, not from the text of the source: active = GI50 up to about 1.1 µM and inactive = higher.

Key:
Assay in all cases: growth of human tumour cells (NCI), 48 h
UO-31 = test system: UO-31
COLO 205 = test system: COLO 205
DU-145 = test system: DU-145
K562 = test system: K562
HOP-92 = test system: HOP-92
A549 = test system: A549
HCT-116 = test system: HCT-116
MDA-MB-231 = test system: MDA-MB-231
SNB-19 = test system: SNB-19
SF-295 = test system: SF-295
SK-MEL-5 = test system: SK-MEL-5
RPMI-8226 = test system: RPMI-8226
U-251 = test system: U-251
Hs-578T = test system: Hs-578T
SN12C = test system: SN12C
OVCAR-5 = test system: OVCAR-5
PC-3 = test system: PC-3
SNB-75 = test system: SNB-75
A498 = test system: A498
UACC-62 = test system: UACC-62
MOLT-4 = test system: MOLT-4
HCT-15 = test system: HCT-15
M14 = test system: M14
LOX IMVI = test system: LOX IMVI
RXF 393 = test system: RXF 393
SW-620 = test system: SW-620
SK-MEL-2 = test system: SK-MEL-2
EKVX = test system: EKVX
SF-268 = test system: SF-268
CAKI-1 = test system: CAKI-1
SK-MEL-28 = test system: SK-MEL-28
KM12 = test system: KM12
OVCAR-3 = test system: OVCAR-3
786-0 = test system: 786-0
UACC-257 = test system: UACC-257
HCC 2998 = test system: HCC 2998
NCI-H226 = test system: NCI-H226
TK-10 = test system: TK-10
ACHN = test system: ACHN
MDA-N = test system: MDA-N
MCF7 = test system: MCF7
MDA-MB-435 = test system: MDA-MB-435
SF-539 = test system: SF-539
HOP-62 = test system: HOP-62
T47D = test system: T47D
SK-OV-3 = test system: SK-OV-3
OVCAR-4 = test system: OVCAR-4
NCI/ADR-RES = test system: NCI/ADR-RES
CCRF-CEM = test system: CCRF-CEM

In the case of `Cc1cccc(-c2cc(=S)c3cc(N4CCCC4)ccc3[nH]2)c1`, the GI50 (UO-31) was > 100 µM (inactive), the GI50 (COLO 205) was > 100 µM (inactive) and the GI50 (DU-145) was > 100 µM (inactive). For the same molecule, the GI50 (K562) was > 100 µM (inactive), the GI50 (HOP-92) was > 100 µM (inactive) and the GI50 (A549) was > 100 µM (inactive). The GI50 (HCT-116) was > 100 µM (inactive), the GI50 (MDA-MB-231) was > 100 µM (inactive) and the GI50 (SNB-19) was > 100 µM (inactive). For the same molecule, the GI50 (SF-295) was > 100 µM (inactive), the GI50 (SK-MEL-5) was > 100 µM (inactive) and the GI50 (RPMI-8226) was > 100 µM (inactive). The GI50 (U-251) was > 100 µM (inactive), the GI50 (Hs-578T) was > 100 µM (inactive) and the GI50 (SN12C) was > 100 µM (inactive). The GI50 (OVCAR-5) was > 100 µM (inactive), the GI50 (PC-3) was > 100 µM (inactive) and the GI50 (SNB-75) was > 100 µM (inactive). The GI50 (A498) was > 100 µM (inactive), the GI50 (UACC-62) was > 100 µM (inactive) and the GI50 (MOLT-4) was > 100 µM (inactive). The GI50 (HCT-15) was over 100 µM, the GI50 (M14) was > 100 µM (inactive) and the GI50 (LOX IMVI) was > 100 µM (inactive). The GI50 (RXF 393) was > 100 µM (inactive), the GI50 (SW-620) was > 100 µM (inactive) and the GI50 (SK-MEL-2) was > 100 µM (inactive). For the same molecule, the GI50 (EKVX) was > 100 µM (inactive), the GI50 (SF-268) was > 100 µM (inactive) and the GI50 (CAKI-1) was > 100 µM (inactive). For the same molecule, the GI50 (SK-MEL-28) was > 100 µM (inactive), the GI50 (KM12) was > 100 µM (inactive) and the GI50 (OVCAR-3) was > 100 µM (inactive). For the same molecule, the GI50 (786-0) was > 100 µM (inactive), the GI50 (UACC-257) was > 100 µM (inactive) and the GI50 (HCC 2998) was > 100 µM (inactive). For the same molecule, the GI50 (NCI-H226) was > 100 µM (inactive), the GI50 (TK-10) was > 100 µM (inactive) and the GI50 (ACHN) was > 100 µM (inactive). For the same molecule, the GI50 (MDA-N) was > 100 µM (inactive), the GI50 (MCF7) was > 100 µM (inactive) and the GI50 (MDA-MB-435) was > 100 µM (inactive). The GI50 (SF-539) was > 100 µM (inactive), the GI50 (HOP-62) was > 100 µM (inactive) and the GI50 (T47D) was > 100 µM (inactive). For the same molecule, the GI50 (SK-OV-3) was > 100 µM (inactive), the GI50 (OVCAR-4) was > 100 µM (inactive) and the GI50 (NCI/ADR-RES) was > 100 µM (inactive). The GI50 (CCRF-CEM) was > 100 µM (inactive).
